Measurements reported in ChEMBL document CHEMBL5104172, “Design, synthesis, and antibacterial activity of derivatives of Tryptophanyl-tRNA synthetase inhibitor indolmycin” (Eur J Med Chem, 2022).
In brackets after ≈: the same amount, converted by molar mass.

How the values were obtained:
Format in all cases: functional
Staphylococcus aureus [1] = assay: Antibacterial activity against Staphylococcus aureus ATCC 29213 measured by liquid dilution method
Escherichia coli = assay: Antibacterial activity against Escherichia coli ATCC 25922 measured by liquid dilution method
Staphylococcus aureus [2] = assay: Antibacterial activity against methicillin-resistant Staphylococcus aureus NRS384 measured by liquid dilution method
Enterococcus faecium [3] = assay: Antibacterial activity against Enterococcus faecium EFM17-2 measured by liquid dilution method
Staphylococcus aureus [4] = assay: Antibacterial activity against methicillin-resistant Staphylococcus aureus ATCC 33591 measured by liquid dilution method
Enterococcus faecium [5] = assay: Antibacterial activity against Enterococcus faecium EFM17-1 measured by liquid dilution method
Staphylococcus aureus [6] = assay: Antibacterial activity against methicillin-resistant Staphylococcus aureus MRSA17-3 measured by liquid dilution method
Staphylococcus aureus [7] = assay: Antibacterial activity against vancomycin-intermediate Staphylococcus aureus ATCC 700788 measured by liquid dilution method
[8] = tested on: Staphylococcus epidermidis; assay: Antibacterial activity against methicillin-sensitive Staphylococcus epidermidis MSSE17-3 measured by liquid dilution method
[9] = tested on: Staphylococcus epidermidis; assay: Antibacterial activity against methicillin-resistant Staphylococcus epidermidis MRSE17-1 measured by liquid dilution method
[10] = tested on: Staphylococcus epidermidis; assay: Antibacterial activity against methicillin-resistant Staphylococcus epidermidis MRSE17-4 measured by liquid dilution method
Staphylococcus aureus [11] = assay: Antibacterial activity against methicillin-resistant Staphylococcus aureus MRSA17-6 measured by liquid dilution method
Staphylococcus aureus [12] = assay: Antibacterial activity against methicillin-sensitive Staphylococcus aureus MSSA17-2 measured by liquid dilution method
Staphylococcus aureus [13] = assay: Antibacterial activity against methicillin-sensitive Staphylococcus aureus MSSA17-3 measured by liquid dilution method
[14] = tested on: Staphylococcus epidermidis; assay: Antibacterial activity against methicillin-sensitive Staphylococcus epidermidis MSSE17-2 measured by liquid dilution method
[15] = tested on: Staphylococcus epidermidis; assay: Antibacterial activity against methicillin-resistant Staphylococcus epidermidis MRSE17-6 measured by liquid dilution method
Staphylococcus aureus [16] = assay: Antibacterial activity against methicillin-resistant Staphylococcus aureus MRSA17-2 measured by liquid dilution method
Staphylococcus aureus [17] = assay: Antibacterial activity against vancomycin-intermediate Staphylococcus aureus ATCC 700699 measured by liquid dilution method
Enterococcus faecalis [18] = assay: Antibacterial activity against Enterococcus faecalis EFA17-1 measured by liquid dilution method
[19] = tested on: Staphylococcus epidermidis; assay: Antibacterial activity against methicillin-resistant Staphylococcus epidermidis MRSE17-2 measured by liquid dilution method
Staphylococcus aureus [20] = assay: Antibacterial activity against methicillin-resistant Staphylococcus aureus MRSA17-5 measured by liquid dilution method
Staphylococcus aureus [21] = assay: Antibacterial activity against methicillin-sensitive Staphylococcus aureus MSSA17-1 measured by liquid dilution method
Staphylococcus aureus [22] = assay: Antibacterial activity against methicillin-resistant Staphylococcus aureus MRSA17-1 measured by liquid dilution method
[23] = tested on: Staphylococcus epidermidis; assay: Antibacterial activity against methicillin-resistant Staphylococcus epidermidis MRSE17-3 measured by liquid dilution method
Staphylococcus aureus [24] = assay: Antibacterial activity against methicillin-resistant Staphylococcus aureus ATCC 43300 measured by liquid dilution method
[25] = tested on: Staphylococcus epidermidis; assay: Antibacterial activity against methicillin-sensitive Staphylococcus epidermidis MSSE17-1 measured by liquid dilution method
Enterococcus faecalis [26] = assay: Antibacterial activity against Enterococcus faecalis ATCC 29212 measured by liquid dilution method

CNC1=NC(=O)C(C(C)c2c[nH]c3cccc(Cl)c23)S1 (racemic)
MIC (Staphylococcus aureus [1]): 8 µg/mL (≈ 26 µM) | MIC (Escherichia coli): > 128 µg/mL | MIC (Staphylococcus aureus [2]): > 128 µg/mL

CNC1=NC(=O)[C@@H]([C@@H](C)c2c[nH]c3cc(F)ccc23)O1
MIC (Enterococcus faecium [3]): > 128 µg/mL | MIC (Staphylococcus aureus [4]): > 128 µg/mL | MIC (Enterococcus faecium [5]): > 128 µg/mL | MIC (Staphylococcus aureus [1]): > 128 µg/mL | MIC (Staphylococcus aureus [6]): > 128 µg/mL | MIC (Staphylococcus aureus [7]): > 128 µg/mL | MIC [8]: > 128 µg/mL | MIC [9]: > 128 µg/mL | MIC [10]: > 128 µg/mL | MIC (Staphylococcus aureus [11]): > 128 µg/mL | MIC (Staphylococcus aureus [12]): > 128 µg/mL | MIC (Staphylococcus aureus [13]): > 128 µg/mL | MIC [14]: > 128 µg/mL | MIC [15]: > 128 µg/mL | MIC (Staphylococcus aureus [16]): > 128 µg/mL | MIC (Staphylococcus aureus [17]): > 128 µg/mL | MIC (Enterococcus faecalis [18]): > 128 µg/mL | MIC [19]: > 128 µg/mL | MIC (Staphylococcus aureus [20]): > 128 µg/mL | MIC (Staphylococcus aureus [21]): > 128 µg/mL | MIC (Staphylococcus aureus [22]): > 128 µg/mL | MIC [23]: > 128 µg/mL | MIC (Staphylococcus aureus [24]): > 128 µg/mL | MIC [25]: > 128 µg/mL | MIC (Enterococcus faecalis [26]): > 128 µg/mL

CNC1=NC(=O)C(C(C)c2c[nH]c3cccc(N4CCCC4)c23)O1 (racemic)
MIC (Staphylococcus aureus [1]): 128 µg/mL (≈ 392 µM) | MIC (Escherichia coli): > 128 µg/mL | MIC (Staphylococcus aureus [2]): > 128 µg/mL

CNC1=NC(=O)C(C(C)c2c[nH]c3cccc(F)c23)S1 (racemic)
MIC (Staphylococcus aureus [1]): 8 µg/mL (≈ 27.5 µM) | MIC (Escherichia coli): > 128 µg/mL | MIC (Staphylococcus aureus [2]): > 128 µg/mL

CNC1=NC(=O)C(C(C)c2c[nH]c3ccc(N4CCCCC4)cc23)O1 (racemic)
MIC (Staphylococcus aureus [1]): > 128 µg/mL | MIC (Escherichia coli): > 128 µg/mL | MIC (Staphylococcus aureus [2]): > 128 µg/mL

CNC1=NC(=O)C(C(C)c2c[nH]c3ccccc23)O1 (racemic)
MIC (Staphylococcus aureus [1]): 1 µg/mL (≈ 3.89 µM) | MIC (Escherichia coli): 1 µg/mL (≈ 3.89 µM) | MIC (Staphylococcus aureus [2]): 1 µg/mL (≈ 3.89 µM)

CNC1=NC(=O)C(C(C)c2c[nH]c3cc(F)ccc23)O1 (racemic)
MIC (Staphylococcus aureus [1]): 16 µg/mL (≈ 58.1 µM) | MIC (Escherichia coli): 8 µg/mL (≈ 29.1 µM) | MIC (Staphylococcus aureus [2]): 8 µg/mL (≈ 29.1 µM)

CNC1=NC(=O)[C@@H]([C@@H](C)c2c[nH]c3cccc(C)c23)O1
MIC (Enterococcus faecium [3]): > 128 µg/mL | MIC (Staphylococcus aureus [4]): > 128 µg/mL | MIC (Enterococcus faecium [5]): > 128 µg/mL | MIC (Staphylococcus aureus [1]): > 128 µg/mL | MIC (Staphylococcus aureus [6]): > 128 µg/mL | MIC (Staphylococcus aureus [7]): > 128 µg/mL | MIC [8]: > 128 µg/mL | MIC [9]: > 128 µg/mL | MIC [10]: > 128 µg/mL | MIC (Staphylococcus aureus [11]): > 128 µg/mL | MIC (Staphylococcus aureus [12]): > 128 µg/mL | MIC (Staphylococcus aureus [13]): > 128 µg/mL | MIC [14]: > 128 µg/mL | MIC [15]: > 128 µg/mL | MIC (Staphylococcus aureus [16]): > 128 µg/mL | MIC (Staphylococcus aureus [17]): > 128 µg/mL | MIC (Enterococcus faecalis [18]): > 128 µg/mL | MIC [19]: > 128 µg/mL | MIC (Staphylococcus aureus [20]): > 128 µg/mL | MIC (Staphylococcus aureus [21]): > 128 µg/mL | MIC (Staphylococcus aureus [22]): > 128 µg/mL | MIC [23]: > 128 µg/mL | MIC (Staphylococcus aureus [24]): > 128 µg/mL | MIC [25]: > 128 µg/mL | MIC (Enterococcus faecalis [26]): > 128 µg/mL

CNC1=NC(=O)C(C(C)c2c[nH]c3cccc(C)c23)O1 (racemic)
MIC (Staphylococcus aureus [1]): 2 µg/mL (≈ 7.37 µM) | MIC (Escherichia coli): 32 µg/mL (≈ 118 µM) | MIC (Staphylococcus aureus [2]): > 128 µg/mL

CNC1=NC(=O)C(C(C)c2c[nH]c3cccc(OCc4ccccc4)c23)O1 (racemic)
MIC (Staphylococcus aureus [1]): > 128 µg/mL | MIC (Escherichia coli): > 128 µg/mL | MIC (Staphylococcus aureus [2]): > 128 µg/mL

CNC1=NC(=O)C(C(C)c2c[nH]c3cc(C)ccc23)O1 (racemic)
MIC (Staphylococcus aureus [1]): > 128 µg/mL | MIC (Escherichia coli): 16 µg/mL (≈ 59 µM) | MIC (Staphylococcus aureus [2]): 8 µg/mL (≈ 29.5 µM)

CNC1=NC(=O)[C@@H]([C@@H](C)c2c[nH]c3cccc(Br)c23)O1
MIC (Enterococcus faecium [3]): > 128 µg/mL | MIC (Staphylococcus aureus [4]): 128 µg/mL (≈ 381 µM) | MIC (Enterococcus faecium [5]): > 128 µg/mL | MIC (Staphylococcus aureus [1]): > 128 µg/mL | MIC (Staphylococcus aureus [6]): 64 µg/mL (≈ 190 µM) | MIC (Staphylococcus aureus [7]): 128 µg/mL (≈ 381 µM) | MIC [8]: 128 µg/mL (≈ 381 µM) | MIC [9]: > 128 µg/mL | MIC [10]: 128 µg/mL (≈ 381 µM) | MIC (Staphylococcus aureus [11]): 128 µg/mL (≈ 381 µM) | MIC (Staphylococcus aureus [12]): 128 µg/mL (≈ 381 µM) | MIC (Staphylococcus aureus [13]): 128 µg/mL (≈ 381 µM) | MIC [14]: 64 µg/mL (≈ 190 µM) | MIC [15]: 128 µg/mL (≈ 381 µM) | MIC (Staphylococcus aureus [16]): 128 µg/mL (≈ 381 µM) | MIC (Staphylococcus aureus [17]): 128 µg/mL (≈ 381 µM) | MIC (Enterococcus faecalis [18]): > 128 µg/mL | MIC [19]: 128 µg/mL (≈ 381 µM) | MIC (Staphylococcus aureus [20]): 128 µg/mL (≈ 381 µM) | MIC (Staphylococcus aureus [21]): 128 µg/mL (≈ 381 µM) | MIC (Staphylococcus aureus [22]): 128 µg/mL (≈ 381 µM) | MIC [23]: > 128 µg/mL | MIC (Staphylococcus aureus [24]): 128 µg/mL (≈ 381 µM) | MIC [25]: 128 µg/mL (≈ 381 µM) | MIC (Enterococcus faecalis [26]): > 128 µg/mL

CC(c1c[nH]c2ccccc12)C1OC(N)=NC1=O (racemic)
MIC (Staphylococcus aureus [1]): 8 µg/mL (≈ 32.9 µM) | MIC (Escherichia coli): > 128 µg/mL | MIC (Staphylococcus aureus [2]): > 128 µg/mL

CNC1=NC(=O)C(C(C)c2c[nH]c3cccc(Br)c23)S1 (racemic)
MIC (Staphylococcus aureus [1]): 16 µg/mL (≈ 45.4 µM) | MIC (Escherichia coli): > 128 µg/mL | MIC (Staphylococcus aureus [2]): > 128 µg/mL

CNC1=NC(=O)C(C(C)c2c[nH]c3ccc(F)cc23)O1 (racemic)
MIC (Staphylococcus aureus [1]): 32 µg/mL (≈ 116 µM) | MIC (Escherichia coli): 128 µg/mL (≈ 465 µM) | MIC (Staphylococcus aureus [2]): 64 µg/mL (≈ 232 µM)

CNC1=NC(=O)C(C(C)c2c[nH]c3c(F)cccc23)O1 (racemic)
MIC (Staphylococcus aureus [1]): 8 µg/mL (≈ 29.1 µM) | MIC (Escherichia coli): 16 µg/mL (≈ 58.1 µM) | MIC (Staphylococcus aureus [2]): 8 µg/mL (≈ 29.1 µM)

CNC1=NC(=O)C(C(C)c2c[nH]c3ccc(C)cc23)O1 (racemic)
MIC (Staphylococcus aureus [1]): > 128 µg/mL | MIC (Escherichia coli): > 128 µg/mL | MIC (Staphylococcus aureus [2]): > 128 µg/mL

CCN(CC)c1cccc2[nH]cc(C(C)C3OC(NC)=NC3=O)c12 (racemic)
MIC (Staphylococcus aureus [1]): 64 µg/mL (≈ 195 µM) | MIC (Escherichia coli): > 128 µg/mL | MIC (Staphylococcus aureus [2]): > 128 µg/mL
